The values that follow come from ChEMBL document CHEMBL1136694, “Aryl tetrahydropyridine inhibitors of farnesyltransferase: bioavailable analogues with improved cellular potency” (Bioorg Med Chem Lett, 2003).

For series [1], the target named is Protein farnesyltransferase (Homo sapiens, UniProt P49354+P49356). Kind of series: In vitro inhibition of farnesyltransferase. In kind it is protein-complex assay.
Series [2] concerns the target Protein farnesyltransferase (Mus musculus, UniProt Q61239+Q8K2I1). Kind of series: Inhibition of Ras farnesylation in Human Ha-Ras oncogene-transformed BALB/c 3T3 cells (EJ3 cells). Format: functional, cell-based.
Series [3] concerns the target Geranylgeranyl transferase type I (Homo sapiens, UniProt P49354+P53609). Kind of series: In vitro inhibition of geranylgeranyltransferase-1. Format: protein-complex assay.
A short description of series [4]: Compound was tested for orally bioavailable in dogs with a half life of 1.2h. Format: ADME, organism-based, Canis lupus familiaris. Particulars: dog, in vivo, po.
Series [5] can be described thus: Compound was tested for orally bioavailable in dogs with a half life of 0.7 hr. The conditions noted are these: dog, in vivo, po. In kind it is ADME, organism-based, Canis lupus familiaris.

pEC50, pIC50: −log10 of the molar value.

As to `N#CC1=C(c2cccc3ccccc23)CN(C(=O)Cc2cncn2Cc2ccc(C#N)c(Cl)c2)CC1`, the negative logarithm of the IC50 (pIC50) (commonly the IC50 on a negative log10 scale, so that one unit is a factor of ten) in series [1] is 7.82; in series [3], 5.89. The negative-log EC50 (pEC50) (as a rule, the EC50 on a negative log10 scale, so that one unit is a factor of ten) in series [2] is below 7.00.
For the compound `Cn1cncc1C(NN1CCC(C#N)=C(c2cccc3ccccc23)C1)c1ccc(C#N)cc1` (stereo not drawn), the negative logarithm of the IC50 (pIC50) in series [1] is 9.30; in series [3] it was 6.22. In series [2], this compound had a pEC50 of 9.30. The bioavailability (commonly dose-corrected exposure relative to a reference, in per cent) in series [4] amounted to 27%.
For the compound `Cn1cncc1C(O)(CN1CCC(C#N)=C(c2cccc3ccccc23)C1)c1ccc(C#N)cc1` (stereo not drawn), the negative logarithm of the IC50 (pIC50) in series [1] is 9.32; in series [3] it was 6.27. For the same compound, the pEC50 in series [2] was 8.40.
The like results for `COC1=C(C#N)CCN(C(=O)Cc2cncn2Cc2ccc(C#N)c(-c3cccc4ccccc34)c2)C1` were, in that order, 8.85, 5.57 and below 7.00.
On to `Cn1cncc1CN(Cc1ccc(Cl)c(Cl)c1)C(=O)N1CCC(C#N)=C(c2cccc3ccccc23)C1`, for which the negative-log IC50 (pIC50) was 7.70 in series [1] and 5.82 in series [3].
For the compound `Cn1cncc1CN(Cc1cccc(C#N)c1)C(=O)N1CCC(C#N)=C(c2cccc3ccccc23)C1`, the pIC50 in series [1] was 7.23; in series [3], 5.00.
For the compound `Cn1cncc1CN(Cc1ccc(C#N)c(Br)c1)C(=O)N1CCC(C#N)=C(c2cccc3ccccc23)C1`, the negative-log IC50 (pIC50) in series [1] was 8.51; in series [3], 5.85. The pEC50 in series [2] was below 9.00.
The like results for `N#CC1=C(c2cccc3ccccc23)CN(C(=O)Cc2cncn2Cc2ccc(Cl)cc2)CC1` were, in that order, 7.46, below 5.00 and below 7.00.
On to `N#CC1=C(c2cccc3ccccc23)CN(C(=O)CCc2cncn2Cc2ccc(C#N)cc2)CC1`, for which the negative logarithm of the IC50 (pIC50) is 8.85 in series [1] and 5.89 in series [3]. In series [2], this compound showed a negative logarithm of the EC50 (pEC50) of 7.55.
For `CN(Cc1ccc(C#N)cc1)[C@H](Cc1cncn1C)C(=O)N1CCC(C#N)=C(c2cccc3ccccc23)C1`, the pIC50 in series [1] is 9.04; in series [3], 5.80. Besides, the pEC50 in series [2] was below 7.00.
Compound `N#CC1=C(c2cccc3ccccc23)CN(C(=O)Cc2cncn2Cc2ccc(C#N)cc2)CC1` showed a pEC50 in series [2] of 8.41. This compound also gave a negative-log IC50 (pIC50) in series [3] of 5.35. In addition, in series [5], the bioavailability came to 10%.
As to `Cn1cncc1C(c1ccc(C#N)cc1)N1CCC(C#N)=C(c2cccc3ccccc23)C1` (stereo not drawn), the pIC50 was 9.30 in series [1] and 3.79 in series [3]. In addition, the pEC50 in series [2] is 7.51.
On to `Cn1cncc1CN(Cc1ccc(C#N)cc1)C(=O)N1CCC(C#N)=C(c2cccc3ccccc23)C1`, for which the pIC50 in series [1] is 8.46; in series [3], 5.40. The pEC50 in series [2] was 7.01.
